Measurements taken from publication PMC7694773, “Synthesis, 3D-QSAR, and Molecular Modeling Studies of Triazole Bearing Compounds as a Promising Scaffold for Cyclooxygenase-2 Inhibition” (Pharmaceuticals, 2020).
“And” between values parts separate entries of the source, which are not always exact repeats. Equal values may be shown once. Read-outs that look alike come from different tables or passages of the source.

Columns and labels:
bovine COX-1 = target: T1, bovine COX-1 (Ovis aries, UniProt P05979); experiment: In vitro COX-1 inhibition, enzyme immunoassay kit (Cayman item no. 560131); assay type: biochemical; conditions: mean of two determinations
T1 construct: purchased Cayman Chemical 560131
T1 sequence (P05979 25-600): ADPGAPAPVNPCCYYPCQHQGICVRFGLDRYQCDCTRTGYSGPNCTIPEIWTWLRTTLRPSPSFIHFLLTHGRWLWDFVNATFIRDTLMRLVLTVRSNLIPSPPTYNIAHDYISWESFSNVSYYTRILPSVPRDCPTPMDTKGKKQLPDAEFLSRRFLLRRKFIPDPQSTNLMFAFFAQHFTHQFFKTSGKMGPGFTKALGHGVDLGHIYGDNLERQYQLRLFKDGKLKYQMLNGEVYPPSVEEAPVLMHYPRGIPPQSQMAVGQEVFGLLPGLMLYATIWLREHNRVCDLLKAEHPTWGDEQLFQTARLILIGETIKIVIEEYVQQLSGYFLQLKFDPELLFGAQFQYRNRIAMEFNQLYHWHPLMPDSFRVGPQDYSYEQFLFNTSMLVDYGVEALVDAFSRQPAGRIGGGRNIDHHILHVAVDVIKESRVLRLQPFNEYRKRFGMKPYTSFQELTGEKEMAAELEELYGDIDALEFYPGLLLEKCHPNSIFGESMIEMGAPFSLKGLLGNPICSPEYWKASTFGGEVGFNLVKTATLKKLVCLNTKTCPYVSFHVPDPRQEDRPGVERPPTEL
Text: (§1) The in vitro COX-1/COX-2 isozyme inhibition studies measure the ability of tested compounds to inhibit bovine COX-1 and human recombinant COX-2 using an enzyme immunoassay (COX inhibitor screening assay kit, item no. 560131) according to the manufacturer’s instructions. […].

human recombinant COX-2 = target: T2, human recombinant COX-2 (Homo sapiens, UniProt P35354); experiment: In vitro COX-2 inhibition, enzyme immunoassay kit (Cayman item no. 560131); assay type: biochemical
T2 construct: purchased Cayman Chemical 560131
T2 sequence (P35354 18-604): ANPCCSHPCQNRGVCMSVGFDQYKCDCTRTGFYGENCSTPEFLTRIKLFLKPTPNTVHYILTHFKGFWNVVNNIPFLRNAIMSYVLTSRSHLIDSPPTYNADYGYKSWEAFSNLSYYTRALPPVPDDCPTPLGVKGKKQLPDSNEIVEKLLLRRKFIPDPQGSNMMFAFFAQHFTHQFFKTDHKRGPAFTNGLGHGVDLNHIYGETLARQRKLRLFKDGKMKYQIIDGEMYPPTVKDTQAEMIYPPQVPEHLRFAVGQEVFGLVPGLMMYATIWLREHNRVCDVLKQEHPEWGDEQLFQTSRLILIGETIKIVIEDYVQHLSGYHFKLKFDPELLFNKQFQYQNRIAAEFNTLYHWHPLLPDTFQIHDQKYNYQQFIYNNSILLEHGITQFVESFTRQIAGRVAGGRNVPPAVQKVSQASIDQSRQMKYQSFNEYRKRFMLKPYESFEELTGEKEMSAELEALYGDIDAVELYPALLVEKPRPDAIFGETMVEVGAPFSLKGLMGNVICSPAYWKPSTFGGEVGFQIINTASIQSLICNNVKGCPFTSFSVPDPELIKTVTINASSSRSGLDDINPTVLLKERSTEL
Text: as §1

egg albumin = target: T3, egg albumin (Gallus gallus, UniProt P01012); experiment: In situ anti-inflammatory assay: inhibition of protein (albumin) denaturation; conditions: for inhibition at 1000 µM / % of inhibition ± SEM at conc. 0.1 / % of inhibition ± SEM at conc. 1 / % of inhibition ± SEM at conc. 10 / % of inhibition ± SEM at conc. 100: protein denaturation, three replicates; for inhibition at 1000 µM: conc. 1000 µM, read-out: % of inhibition ± SEM at conc. 1000; for % of inhibition ± SEM at conc. 0.1: conc. 0.1 (µM); for % of inhibition ± SEM at conc. 1: conc. 1 (µM); for % of inhibition ± SEM at conc. 10: conc. 10 (µM); for % of inhibition ± SEM at conc. 100: conc. 100 (µM)
T3 sequence (P01012 1-386): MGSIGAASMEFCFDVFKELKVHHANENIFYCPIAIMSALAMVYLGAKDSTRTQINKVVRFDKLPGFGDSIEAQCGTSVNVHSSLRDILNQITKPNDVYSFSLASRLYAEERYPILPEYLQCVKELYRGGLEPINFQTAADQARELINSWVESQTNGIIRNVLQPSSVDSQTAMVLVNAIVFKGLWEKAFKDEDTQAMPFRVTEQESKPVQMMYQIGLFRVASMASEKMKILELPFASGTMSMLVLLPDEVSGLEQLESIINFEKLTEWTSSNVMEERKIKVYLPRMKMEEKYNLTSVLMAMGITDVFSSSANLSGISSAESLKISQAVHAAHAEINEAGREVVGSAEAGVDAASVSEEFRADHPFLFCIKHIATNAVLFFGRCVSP
Method: Protein denaturation is used for the evaluation of anti-inflammatory activity. In this methodology, generally, tertiary and secondary protein structures will typically be destroyed by the application of an external molecule or stress. The biological function of most bio-proteins is lost if it is denatured. It is well reported that a basis of inflammation is denaturation of protein.
The reaction mixture is molecules with serial dilutions (1000, 100, 10, 1, 0.1 µM), phosphate buffered saline (PBS; pH 6.4), and egg albumin. The control used was double distilled water (equal volume). […] After attaining ambient temperature, the absorbance of samples was measured spectrophotometrically at 660 nm using vehicle as blank. […] The experiment was performed in triplicate. Percent inhibition of protein denaturation was calculated using the Equation Inhibition (%) of protein denaturation inhibition (%) = (AC − AS)/AC × 100 where AC: absorbance of control, AS: absorbance of sample.

[1] = human recombinant COX-2, mean of two determinations, read-out: IC50 COX-2
[2] = pIC50 = −Log (IC50) of the COX-2 IC50, read-out: Activity (experimental pIC50, COX-2) (converted)

Row | Compound | IC50 (bovine COX-1) [nM] | COX-2 S.I. (selectivity index, COX-1 IC50/COX-2 IC50) (human recombinant COX-2) | IC50 (human recombinant COX-2; [1]) [nM] | IC50 (human recombinant COX-2; [2]) | melting point [°C] | inhibition at 1000 µM (egg albumin) [%] | % of inhibition ± SEM at conc. 0.1 (egg albumin) [%] | % of inhibition ± SEM at conc. 1 (egg albumin) [%] | % of inhibition ± SEM at conc. 10 (egg albumin) [%] | % of inhibition ± SEM at conc. 100 (egg albumin) [%] | LogIC50 protein denaturation (egg albumin; GraphPad prism curve fit, IC50 in µM (Figure 3)) | IC50 (egg albumin; non-linear regression, sigmoidal dose-inhibition fit, GraphPad prism)
1 | Oc1ccccc1C=Nn1c(S)nnc1COc1ccc2ccccc2c1 [Compound 9b, 2-(((3-mercapto-5-((naphthalen-2-yloxy)methyl)-4H-1,2,4-triazol-4-yl)imino)methyl)phenol] | 7670 | 40.4 | 190 | 190 nM | 208 to 219 |  |  |  |  |  |  | 
2 | O=[N+]([O-])c1cccc(C=Nn2c(S)nnc2COc2ccc3ccccc3c2)c1 [Compound 9c, 5-((naphthalen-2-yloxy)methyl)-4-((3-nitrobenzylidene)amino)-4H-1,2,4-triazole-3-thiol] | 9430 | 72.5 | 130 | 130 nM | 200 to 202 |  |  |  |  |  |  | 
3 | Sc1nnc(COc2ccc3ccccc3c2)n1N=Cc1ccccc1 [Compound 9a, 4-(benzylideneamino)-5-((naphthalen-2-yloxy)methyl)-4H-1,2,4-triazole-3-thiol] | 6930 | 31.5 | 220 | 220 nM | 184 to 186 |  |  |  |  |  |  | 
4 | O=C(O)Cc1ccccc1Nc1c(Cl)cccc1Cl [Diclofenac sodium, reference compound] |  |  |  |  |  | 94.2 | 32.14±1.01 | 61.45±1.21 | 67.32±0.95 | 82.43±1.87 |  | 
5 | O=C(CCl)Sc1nnc(COc2ccc3ccccc3c2)n1N=Cc1ccccc1 [Compound 10a] | 9720 | 74.8 | 130 | 130 nM |  |  |  |  |  |  |  | 
6 | O=C(CCl)Sc1nnc(COc2ccc3ccccc3c2)n1N=Cc1ccccc1O [Compound 10b] | 9890 | 70.6 | 140 | 140 nM |  |  |  |  |  |  |  | 
7 | Nc1ncc(Sc2nnc(COc3ccc4ccccc4c3)n2N=Cc2ccccc2O)o1 [Compound 11b, 2-(((3-((2-aminooxazol-5-yl)thio)-5-((naphthalen-2-yloxy)methyl)-4H-1,2,4-triazol-4-yl)imino)methyl)phenol] | 10700 | 119.2 | 90 | 89.9 nM | 80 to 81 |  |  |  |  |  |  | 
8 | COc1ccc(C=Nn2c(COc3ccc4ccccc4c3)nnc2Sc2cnc(N)o2)cc1 [Compound 11d, 5-((4-((4-methoxybenzylidene)amino)-5-((naphthalen-2-yloxy)methyl)-4H-1,2,4-triazol-3-yl)thio)oxazol-2-amine] | 11500 | 192.2 | 60 | 60.1 nM | 70 to 71 |  |  |  |  |  |  | 
9 | Nc1ncc(Sc2nnc(COc3ccc4ccccc4c3)n2N=Cc2ccccc2)o1 [Compound 11a, 5-((4-(benzylideneamino)-5-((naphthalen-2-yloxy)methyl)-4H-1,2,4-triazol-3-yl)thio)oxazol-2-amine] | 12400 | 154.6 | 80 | 80 nM | 162 to 164 |  |  |  |  |  |  | 
10 | Nc1ncc(Sc2nnc(COc3ccc4ccccc4c3)n2N=Cc2cccc([N+](=O)[O-])c2)o1 [Compound 11c, 5-((5-((naphthalen-2-yloxy)methyl)-4-((3-nitrobenzylidene)amino)-4H-1,2,4-triazol-3-yl)thio)oxazol-2-amine] | 12600 | 252.6 | 50 | 50 nM and 49 nM | 196 to 198 |  |  |  |  |  |  | 
11 | O=C(CCl)Sc1nnc(COc2ccc3ccccc3c2)n1N=Cc1cccc([N+](=O)[O-])c1 [Compound 10c] | 10100 | 84.3 | 120 | 120 nM |  |  |  |  |  |  |  | 
12 | COc1ccc(C=Nn2c(COc3ccc4ccccc4c3)nnc2SC(=O)CCl)cc1 [Compound 10d] | 10300 | 94.1 | 110 | 110 nM |  |  |  |  |  |  |  | 

Further lines, results first:

Row | IC50 (bovine COX-1) [nM] | COX-2 S.I. (selectivity index, COX-1 IC50/COX-2 IC50) (human recombinant COX-2) | IC50 (human recombinant COX-2; [1]) [nM] | IC50 (human recombinant COX-2; [2]) | melting point [°C] | inhibition at 1000 µM (egg albumin) [%] | % of inhibition ± SEM at conc. 0.1 (egg albumin) [%] | % of inhibition ± SEM at conc. 1 (egg albumin) [%] | % of inhibition ± SEM at conc. 10 (egg albumin) [%] | % of inhibition ± SEM at conc. 100 (egg albumin) [%] | LogIC50 protein denaturation (egg albumin; GraphPad prism curve fit, IC50 in µM (Figure 3)) | IC50 (egg albumin; non-linear regression, sigmoidal dose-inhibition fit, GraphPad prism) | Compound
13 | 13000 | 311.0 and 325.0 | 40 | 41.8 nM and 40.1 nM | 69 to 70 | 91.2 | 29.21±1.12 | 59.20±1.34 | 72.12±1.27 | 89.31±1.26 | -0.008534 | 981 nM and 980 nM | COc1ccc(C=Nn2c(COc3ccc4ccccc4c3)nnc2Sc2cnc(N)s2)cc1 [Compound 12d, 5-((4-((4-methoxybenzylidene)amino)-5-((naphthalen-2-yloxy)methyl)-4H-1,2,4-triazol-3-yl)thio)thiazol-2-amine]
14 | 12500 | 325.0 and 311.8 | 40 | 40.1 nM | 182 to 184 |  |  |  |  |  |  |  | Nc1ncc(Sc2nnc(COc3ccc4ccccc4c3)n2N=Cc2cccc([N+](=O)[O-])c2)s1 [Compound 12c, 5-((5-((naphthalen-2-yloxy)methyl)-4-((3-nitrobenzylidene)amino)-4H-1,2,4-triazol-3-yl)thio)thiazol-2-amine]
15 | 9830 | 98.3 | 100 | 100 nM | 145 to 146 |  |  |  |  |  |  |  | Nc1ncc(Sc2nnc(COc3ccc4ccccc4c3)n2N=Cc2ccccc2)s1 [Compound 12a, 5-((4-(benzylideneamino)-5-((naphthalen-2-yloxy)methyl)-4H-1,2,4-triazol-3-yl)thio)thiazol-2-amine]
16 | 12100 | 202.0 and 202.2 | 60 | 60.1 nM | 77 to 78 |  |  |  |  |  |  |  | Nc1ncc(Sc2nnc(COc3ccc4ccccc4c3)n2N=Cc2ccccc2O)s1 [Compound 12b, 2-(((3-((2-aminothiazol-5-yl)thio)-5-((naphthalen-2-yloxy)methyl)-4H-1,2,4-triazol-4-yl)imino)methyl)phenol]
